Assay results reported in US20240384350A1, “METHODS OF TREATING CANCER WITH KINASE INHIBITORS” (BOARD OF REGENTS, THE UNIVERSITY OF TEXAS SYSTEM, priority 2021, published 2024).

What was measured:
Experiment in all cases: Ba/F3 drug screening, Cell Titer Glo, IC50 Mut/WT
Assay type in all cases: cell-based
EGFR L858R/T790M/L718Q = target: T1, EGFR L858R/T790M/L718Q (Homo sapiens, UniProt P00533, L718Q/L858R/T790M); conditions: T790M-like-3R, 72 hours
T1 construct: expressed in transfected cells; host or cells: Ba/F3
Description: (§1) Data represent the ratio of the IC50 value for a given TKI for cells with a T790M-like-3R EGFR mutation to the IC50 value for cells with wildtype EGFR.
(§2) Ba/F3 cell generation, drug screening, and IC50 approximations. Ba/F3 cells were obtained as a gift from Dr. Gordon Mills (MD Anderson Cancer Center), and maintained in RPMI (Sigma) containing 10% FBS, 1% penicillin/streptomycin, and 10 ng/ml recombinant mIL-3 (R&D Biosystems). To establish stable Ba/F3 cell lines, Ba/F3 cells were transduced with retroviruses containing mutant EGFR plasmids for 12-24 hours.
(§3) After 48-72 hours of transduction, 2 μg/ml puromycin (Invitrogen) was added to Ba/F3 cell lines in complete RPMI. To select for EGFR positive cell lines, cells were stained with PE-EGFR (Biolegend) and sorted by FACS. After sorting, EGFR positive cells were maintained in RPMI containing 10% FBS, 1% penicillin/streptomycin, and 1 ng/ml EGF to support cell viability. […] Shortly, cells were plated in 384-well plates (Greiner Bio-One) at 2000-3000 cells per well in technical triplicate. Seven different concentrations of TKIs or DMSO vehicle were added to reach a final volume of 40 μL per well. After 72 hours, 11 μL of Cell Titer Glo (Promega) was added to each well. Plates were incubated for a minimum of 10 minutes, and bioluminescence was determined using a FLUOstar OPTIMA plate reader (BMG LABTECH). Raw bioluminescence values were normalized to DMSO control treated cells, and values were plotted in GraphPad Prism. […] Drug screens were performed in technical triplicate on each plate and either duplicate or triplicate biological replicates. […] Statistical differences between groups were determined by ANOVA as described in the figure legends.

EGFR Ex19del T790M = target: T2, EGFR Ex19del T790M (Homo sapiens, UniProt P00533, DEL746-750/T790M); conditions: T790M-like-3S, 72 hours
T2 construct: expressed in transfected cells; host or cells: Ba/F3
Description: (§4) Data represent the ratio of the IC50 value for a given TKI for cells with a T790M-like-3S EGFR mutation to the IC50 value for cells with wildtype EGFR.
as §2
(§5) After 48-72 hours of transduction, 2 μg/ml puromycin (Invitrogen) was added to Ba/F3 cell lines in complete RPMI. To select for EGFR positive cell lines, cells were stained with PE-EGFR (Biolegend) and sorted by FACS. After sorting, EGFR positive cells were maintained in RPMI containing 10% FBS, 1% penicillin/streptomycin, and 1 ng/ml EGF to support cell viability. Drug screening was performed as previously described^41,42. Shortly, cells were plated in 384-well plates (Greiner Bio-One) at 2000-3000 cells per well in technical triplicate. Seven different concentrations of TKIs or DMSO vehicle were added to reach a final volume of 40 μL per well. After 72 hours, 11 μL of Cell Titer Glo (Promega) was added to each well. Plates were incubated for a minimum of 10 minutes, and bioluminescence was determined using a FLUOstar OPTIMA plate reader (BMG LABTECH). Raw bioluminescence values were normalized to DMSO control treated cells, and values were plotted in GraphPad Prism. […] Drug screens were performed in technical triplicate on each plate and either duplicate or triplicate biological replicates.

EGFR S768dupSVD = target: T3, EGFR S768dupSVD (Homo sapiens, UniProt P00533, DUP768-770); conditions: Ex20, 72 hours
T3 construct: expressed in transfected cells; host or cells: Ba/F3 cells, retroviral pBabe-Puro vector
Description: (§6) Data represent the ratio of the IC50 value for a given TKI for cells with an ex20ins EGFR mutation to the IC50 value for cells with wildtype EGFR.
as §2
(§7) After 48-72 hours of transduction, 2 μg/ml puromycin (Invitrogen) was added to Ba/F3 cell lines in complete RPMI. To select for EGFR positive cell lines, cells were stained with PE-EGFR (Biolegend) and sorted by FACS. After sorting, EGFR positive cells were maintained in RPMI containing 10% FBS, 1% penicillin/streptomycin, and 1 ng/ml EGF to support cell viability. Drug screening was performed as previously described^41,42. Shortly, cells were plated in 384-well plates (Greiner Bio-One) at 2000-3000 cells per well in technical triplicate. Seven different concentrations of TKIs or DMSO vehicle were added to reach a final volume of 40 μL per well. After 72 hours, 11 μL of Cell Titer Glo (Promega) was added to each well. Plates were incubated for a minimum of 10 minutes, and bioluminescence was determined using a FLUOstar OPTIMA plate reader (BMG LABTECH). Raw bioluminescence values were normalized to DMSO control treated cells, and values were plotted in GraphPad Prism. […] Drug screens were performed in technical triplicate on each plate and either duplicate or triplicate biological replicates. […] Statistical differences between groups were determined by ANOVA as described in the figure legends.

EGFR R776H = target: T4, EGFR R776H (Homo sapiens, UniProt P00533, R776H)
T4 construct: host or cells: Ba/F3
Description: (§8) Data represent the ratio of the IC50 value for a given TKI for cells with a PACC EGFR mutation to the IC50 value for cells with wildtype EGFR.
as §2, §5

EGFR L833V = target: T5, EGFR L833V (Homo sapiens, UniProt P00533, L833V); conditions: Classical-Like, 72 hours
T5 construct: expressed in transfected cells; host or cells: Ba/F3 cells, retroviral pBabe-Puro vector
Description: Data represent the ratio of the IC50 value for a given TKI for cells with a classical-like EGFR mutation to the IC50 value for cells with wildtype EGFR.
as §2
After 48-72 hours of transduction, 2 μg/ml puromycin (Invitrogen) was added to Ba/F3 cell lines in complete RPMI. To select for EGFR positive cell lines, cells were stained with PE-EGFR (Biolegend) and sorted by FACS. After sorting, EGFR positive cells were maintained in RPMI containing 10% FBS, 1% penicillin/streptomycin, and 1 ng/ml EGF to support cell viability. […] Shortly, cells were plated in 384-well plates (Greiner Bio-One) at 2000-3000 cells per well in technical triplicate. Seven different concentrations of TKIs or DMSO vehicle were added to reach a final volume of 40 μL per well. After 72 hours, 11 μL of Cell Titer Glo (Promega) was added to each well. Plates were incubated for a minimum of 10 minutes, and bioluminescence was determined using a FLUOstar OPTIMA plate reader (BMG LABTECH). Raw bioluminescence values were normalized to DMSO control treated cells, and values were plotted in GraphPad Prism. […] Drug screens were performed in technical triplicate on each plate and either duplicate or triplicate biological replicates.

EGFR G719A/R776C = target: T6, EGFR G719A/R776C (Homo sapiens, UniProt P00533, G719A/R776C)
T6 construct: expressed in transfected cells; host or cells: Ba/F3

EGFR L858R/L718V = target: T7, EGFR L858R/L718V (Homo sapiens, UniProt P00533, L718V/L858R)
T7 construct: host or cells: Ba/F3
Description: as §8, §2, §5

EGFR L858R/C797S = target: T8, EGFR L858R/C797S (Homo sapiens, UniProt P00533, C797S/L858R)
T8 construct: expressed in transfected cells; host or cells: Ba/F3

EGFR T790M = target: T9, EGFR T790M (Homo sapiens, UniProt P00533, T790M); conditions: T790M-like-3S, 72 hours
T9 construct: expressed in transfected cells; host or cells: Ba/F3
Description: as §4, §2, §5

EGFR T725M = target: T10, EGFR T725M (Homo sapiens, UniProt P00533, T725M); conditions: Classical-Like, 72 hours
T10 construct: expressed in transfected cells; host or cells: Ba/F3 cells, retroviral pBabe-Puro vector (vector made by GeneScript from EGFR WT)

EGFR E709A = target: T11, EGFR E709A (Homo sapiens, UniProt P00533, E709A)
T11 construct: expressed in transfected cells; host or cells: Ba/F3

EGFR Ex19del = target: T12, EGFR Ex19del (Homo sapiens, UniProt P00533, DEL746-750); conditions: Classical-Like, 72 hours
T12 construct: expressed in transfected cells; host or cells: Ba/F3 cells, retroviral pBabe-Puro vector

EGFR Ex19del/L792H = target: T13, EGFR Ex19del/L792H (Homo sapiens, UniProt P00533, DEL746-750/L792H)
T13 construct: expressed in transfected cells; host or cells: Ba/F3
Description: as §8, §2, §5

[1] = target: T14, EGFR L747_K754del insATSPE (Homo sapiens, UniProt P00533, DEL747-749/K754E); conditions: T790M-like-3S, 72 hours
T14 construct: expressed in transfected cells; host or cells: Ba/F3 cells, retroviral pBabe-Puro vector

EGFR G719S = target: T15, EGFR G719S (Homo sapiens, UniProt P00533, G719S)
T15 construct: expressed in transfected cells; host or cells: Ba/F3

EGFR L718Q T790M = target: T16, EGFR L718Q T790M (Homo sapiens, UniProt P00533, L718Q/T790M); conditions: T790M-like-3R, 72 hours
T16 construct: expressed in transfected cells; host or cells: Ba/F3
Description: as §1, §2, §3

EGFR H773insNPH = target: T17, EGFR H773insNPH (Homo sapiens, UniProt P00533, INS773NPH); conditions: Ex20, 72 hours
T17 construct: expressed in transfected cells; host or cells: Ba/F3 cells, retroviral pBabe-Puro vector

EGFR S768I/V769L = target: T18, EGFR S768I/V769L (Homo sapiens, UniProt P00533, S768I/V769L)
T18 construct: host or cells: Ba/F3
Description: as §8, §2, §5

EGFR S720P = target: T19, EGFR S720P (Homo sapiens, UniProt P00533, S720P); conditions: Classical-Like, 72 hours
T19 construct: expressed in transfected cells; host or cells: Ba/F3 cells, retroviral pBabe-Puro vector (vector made by GeneScript from EGFR WT)

EGFR E709A G719S = target: T20, EGFR E709A G719S (Homo sapiens, UniProt P00533, E709A/G719S)
T20 construct: expressed in transfected cells; host or cells: Ba/F3
Description: as §8, §2, §5

EGFR G719S T790M = target: T21, EGFR G719S T790M (Homo sapiens, UniProt P00533, G719S/T790M); conditions: T790M-like-3S, 72 hours
T21 construct: expressed in transfected cells; host or cells: Ba/F3

EGFR N771dupN G724S = target: T22, EGFR N771dupN G724S (Homo sapiens, UniProt P00533, DUP771-771/G724S); conditions: Ex20, 72 hours
T22 construct: expressed in transfected cells; host or cells: Ba/F3 cells, retroviral pBabe-Puro vector (vector made by GeneScript from EGFR G724S, c.2313_2314insAAC)
Description: as §6, §2, §7

EGFR G719A L861Q = target: T23, EGFR G719A L861Q (Homo sapiens, UniProt P00533, G719A/L861Q)
T23 construct: expressed in transfected cells; host or cells: Ba/F3

EGFR L858R T790M V843I = target: T24, EGFR L858R T790M V843I (Homo sapiens, UniProt P00533, L858R/T790M/V843I); conditions: T790M-like-3S, 72 hours
T24 construct: expressed in transfected cells; host or cells: Ba/F3
Description: as §4, §2, §5

EGFR S784F = target: T25, EGFR S784F (Homo sapiens, UniProt P00533, S784F); conditions: Classical-Like, 72 hours
T25 construct: expressed in transfected cells; host or cells: Ba/F3 cells, retroviral pBabe-Puro vector (vector made by GeneScript from EGFR WT)

EGFR E709K = target: T26, EGFR E709K (Homo sapiens, UniProt P00533, E709K)
T26 construct: expressed in transfected cells; host or cells: Ba/F3

EGFR Ex19del/T790M/L792H = target: T27, EGFR Ex19del/T790M/L792H (Homo sapiens, UniProt P00533, DEL746-750/L792H/T790M); conditions: T790M-like-3R, 72 hours
T27 construct: expressed in transfected cells; host or cells: Ba/F3

SMILES	ratio of IC50 for cells with mutant EGFR to IC50 for cells with wildtype EGFR (Mut/WT) (EGFR L858R/T790M/L718Q)	ratio of IC50 for cells with mutant EGFR to IC50 for cells with wildtype EGFR (Mut/WT) (EGFR Ex19del T790M)	ratio of IC50 for cells with mutant EGFR to IC50 for cells with wildtype EGFR (Mut/WT) (EGFR S768dupSVD)	ratio of IC50 for cells with mutant EGFR to IC50 for cells with wildtype EGFR (Mut/WT) (EGFR L833V)	ratio of IC50 for cells with mutant EGFR to IC50 for cells with wildtype EGFR (Mut/WT) (EGFR T790M)	ratio of IC50 for cells with mutant EGFR to IC50 for cells with wildtype EGFR (Mut/WT) (EGFR T725M)	ratio of IC50 for cells with mutant EGFR to IC50 for cells with wildtype EGFR (Mut/WT) (EGFR Ex19del)	ratio of IC50 for cells with mutant EGFR to IC50 for cells with wildtype EGFR (Mut/WT) [1]	ratio of IC50 for cells with mutant EGFR to IC50 for cells with wildtype EGFR (Mut/WT) (EGFR L718Q T790M)	ratio of IC50 for cells with mutant EGFR to IC50 for cells with wildtype EGFR (Mut/WT) (EGFR H773insNPH)	ratio of IC50 for cells with mutant EGFR to IC50 for cells with wildtype EGFR (Mut/WT) (EGFR S720P)	ratio of IC50 for cells with mutant EGFR to IC50 for cells with wildtype EGFR (Mut/WT) (EGFR G719S T790M)	ratio of IC50 for cells with mutant EGFR to IC50 for cells with wildtype EGFR (Mut/WT) (EGFR N771dupN G724S)	ratio of IC50 for cells with mutant EGFR to IC50 for cells with wildtype EGFR (Mut/WT) (EGFR L858R T790M V843I)	ratio of IC50 for cells with mutant EGFR to IC50 for cells with wildtype EGFR (Mut/WT) (EGFR S784F)	ratio of IC50 for cells with mutant EGFR to IC50 for cells with wildtype EGFR (Mut/WT) (EGFR Ex19del/T790M/L792H)	other results
Cc1cc(C(=O)Nc2nc3cccc(Cl)c3n2[C@@H]2CCCCN(C(=O)/C=C/CN(C)C)C2)ccn1 [Nazartinib]	0.7714	0.01265	0.4008	0.002739	0.1166	0.04541	0.0005409	0.001195	0.317	0.4242	0.005619	0.04811	0.3384	0.02498	0.03107	4.292	ratio of the IC50 value for cells with a PACC EGFR mutation to the IC50 value for cells with wildtype EGFR (EGFR R776H; Ba/F3 cells, EGFR R776H (PACC), Mut/WT): 0.03601; ratio of the IC50 value for cells with a PACC EGFR mutation to the IC50 value for cells with wildtype EGFR (EGFR G719A/R776C; Ba/F3 cells, EGFR G719A/R776C (PACC), Mut/WT): 0.05772; ratio of the IC50 value for cells with a PACC EGFR mutation to the IC50 value for cells with wildtype EGFR (EGFR L858R/L718V; Ba/F3 cells, EGFR L858R/L718V (PACC), Mut/WT): 1.03; ratio of the IC50 value for cells with a PACC EGFR mutation to the IC50 value for cells with wildtype EGFR (EGFR L858R/C797S; Ba/F3 cells, EGFR L858R/C797S (PACC), Mut/WT): 3.46; ratio of the IC50 value for cells with a PACC EGFR mutation to the IC50 value for cells with wildtype EGFR (EGFR E709A; Ba/F3 cells, EGFR E709A (PACC), Mut/WT): 0.07784; ratio of the IC50 value for cells with a PACC EGFR mutation to the IC50 value for cells with wildtype EGFR (EGFR Ex19del/L792H; Ba/F3 cells, EGFR Ex19del/L792H (PACC), Mut/WT): 0.5146; ratio of the IC50 value for cells with a PACC EGFR mutation to the IC50 value for cells with wildtype EGFR (EGFR G719S; Ba/F3 cells, EGFR G719S (PACC), Mut/WT): 0.08165; ratio of the IC50 value for cells with a PACC EGFR mutation to the IC50 value for cells with wildtype EGFR (EGFR S768I/V769L; Ba/F3 cells, EGFR S768I/V769L (PACC), Mut/WT): 0.2253; ratio of the IC50 value for cells with a PACC EGFR mutation to the IC50 value for cells with wildtype EGFR (EGFR E709A G719S; Ba/F3 cells, EGFR E709A G719S (PACC), Mut/WT): 0.09237; ratio of the IC50 value for cells with a PACC EGFR mutation to the IC50 value for cells with wildtype EGFR (EGFR G719A L861Q; Ba/F3 cells, EGFR G719A L861Q (PACC), Mut/WT): 0.06344; ratio of the IC50 value for cells with a PACC EGFR mutation to the IC50 value for cells with wildtype EGFR (EGFR E709K; Ba/F3 cells, EGFR E709K (PACC), Mut/WT): 0.0309
COc1cc2ncnc(Nc3cccc(Cl)c3F)c2cc1OC(=O)N1CCN(C)C[C@H]1C [AZD3759]	4.812	12.68	3.075	0.1488	21.82	0.1059	0.0001195	4.604	9.625	1.561	0.01834	8.021	1.258	9.625	0.0702	9.625	ratio of IC50 for cells with mutant EGFR to IC50 for cells with wildtype EGFR (Mut/WT) (EGFR R776H; PACC, R776H, Ba/F3, 72 hours): 0.02185; ratio of IC50 for cells with mutant EGFR to IC50 for cells with wildtype EGFR (Mut/WT) (EGFR G719A/R776C; PACC, G719A/R776C, Ba/F3, 72 hours): 0.2006; ratio of IC50 for cells with mutant EGFR to IC50 for cells with wildtype EGFR (Mut/WT) (EGFR L858R/L718V; PACC, L858R/L718V, Ba/F3, 72 hours): 0.2408; ratio of IC50 for cells with mutant EGFR to IC50 for cells with wildtype EGFR (Mut/WT) (EGFR L858R/C797S; PACC, L858R/C797S, Ba/F3, 72 hours): 0.001895; ratio of IC50 for cells with mutant EGFR to IC50 for cells with wildtype EGFR (Mut/WT) (EGFR E709A; PACC, E709A, Ba/F3, 72 hours): 0.1241; ratio of IC50 for cells with mutant EGFR to IC50 for cells with wildtype EGFR (Mut/WT) (EGFR Ex19del/L792H; PACC, Ex19del/L792H, Ba/F3, 72 hours): 9.625; ratio of IC50 for cells with mutant EGFR to IC50 for cells with wildtype EGFR (Mut/WT) (EGFR G719S; PACC, G719S, Ba/F3, 72 hours): 0.01105; ratio of IC50 for cells with mutant EGFR to IC50 for cells with wildtype EGFR (Mut/WT) (EGFR S768I/V769L; PACC, S768I/V769L, Ba/F3, 72 hours): 0.7072; ratio of IC50 for cells with mutant EGFR to IC50 for cells with wildtype EGFR (Mut/WT) (EGFR E709A G719S; PACC, E709A G719S, Ba/F3, 72 hours): 0.2131; ratio of IC50 for cells with mutant EGFR to IC50 for cells with wildtype EGFR (Mut/WT) (EGFR G719A L861Q; PACC, G719A L861Q, Ba/F3, 72 hours): 0.07458; ratio of IC50 for cells with mutant EGFR to IC50 for cells with wildtype EGFR (Mut/WT) (EGFR E709K; PACC, E709K, Ba/F3, 72 hours): 0.3129
